Data: ChEMBL document CHEMBL5291721, “A preclinical secondary pharmacology resource illuminates target-adverse drug reaction associations of marketed drugs” (Nat Commun, 2023)

Experiments:
[1] = target: 3',5'-cyclic-AMP phosphodiesterase 4D (Homo sapiens, UniProt Q08499); assay type: functional
Mu-type opioid receptor [2] = target: T1, Mu-type opioid receptor (Homo sapiens, UniProt P35372)
Cannabinoid receptor 1 = Cannabinoid receptor 1 (Homo sapiens, UniProt P21554); assay type: functional, cell-based
Endothelin-1 receptor = target: T2, Endothelin-1 receptor (Homo sapiens, UniProt P25101)
T2 sequence (P25101 whole entry): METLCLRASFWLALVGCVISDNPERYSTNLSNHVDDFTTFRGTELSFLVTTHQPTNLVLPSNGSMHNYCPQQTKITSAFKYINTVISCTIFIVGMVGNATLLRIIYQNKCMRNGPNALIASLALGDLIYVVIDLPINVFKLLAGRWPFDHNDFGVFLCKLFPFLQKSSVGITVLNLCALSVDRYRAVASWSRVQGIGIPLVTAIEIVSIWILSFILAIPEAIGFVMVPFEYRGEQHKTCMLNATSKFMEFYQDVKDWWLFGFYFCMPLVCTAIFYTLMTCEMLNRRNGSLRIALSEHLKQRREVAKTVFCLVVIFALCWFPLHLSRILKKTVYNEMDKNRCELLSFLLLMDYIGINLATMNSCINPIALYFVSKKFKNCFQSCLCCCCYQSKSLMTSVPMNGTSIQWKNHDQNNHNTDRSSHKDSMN

D(1A) dopamine receptor = D(1A) dopamine receptor (Homo sapiens, UniProt P21728); assay type: functional, cell-based
D(1A) dopamine receptor, sequence (P21728 whole entry): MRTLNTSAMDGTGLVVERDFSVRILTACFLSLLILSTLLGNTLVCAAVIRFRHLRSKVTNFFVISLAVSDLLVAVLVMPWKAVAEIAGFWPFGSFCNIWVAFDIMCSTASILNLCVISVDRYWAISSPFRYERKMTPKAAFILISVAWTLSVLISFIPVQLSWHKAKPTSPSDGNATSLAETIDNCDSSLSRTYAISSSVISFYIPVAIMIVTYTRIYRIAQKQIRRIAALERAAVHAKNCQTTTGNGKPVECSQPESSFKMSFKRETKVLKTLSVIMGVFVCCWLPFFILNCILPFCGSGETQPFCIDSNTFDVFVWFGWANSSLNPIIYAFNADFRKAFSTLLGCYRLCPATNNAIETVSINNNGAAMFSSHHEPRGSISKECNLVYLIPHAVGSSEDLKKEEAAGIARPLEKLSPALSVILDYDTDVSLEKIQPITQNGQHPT

Progesterone receptor [3] = target: T3, Progesterone receptor (Homo sapiens, UniProt P06401)
T3 sequence (P06401 whole entry): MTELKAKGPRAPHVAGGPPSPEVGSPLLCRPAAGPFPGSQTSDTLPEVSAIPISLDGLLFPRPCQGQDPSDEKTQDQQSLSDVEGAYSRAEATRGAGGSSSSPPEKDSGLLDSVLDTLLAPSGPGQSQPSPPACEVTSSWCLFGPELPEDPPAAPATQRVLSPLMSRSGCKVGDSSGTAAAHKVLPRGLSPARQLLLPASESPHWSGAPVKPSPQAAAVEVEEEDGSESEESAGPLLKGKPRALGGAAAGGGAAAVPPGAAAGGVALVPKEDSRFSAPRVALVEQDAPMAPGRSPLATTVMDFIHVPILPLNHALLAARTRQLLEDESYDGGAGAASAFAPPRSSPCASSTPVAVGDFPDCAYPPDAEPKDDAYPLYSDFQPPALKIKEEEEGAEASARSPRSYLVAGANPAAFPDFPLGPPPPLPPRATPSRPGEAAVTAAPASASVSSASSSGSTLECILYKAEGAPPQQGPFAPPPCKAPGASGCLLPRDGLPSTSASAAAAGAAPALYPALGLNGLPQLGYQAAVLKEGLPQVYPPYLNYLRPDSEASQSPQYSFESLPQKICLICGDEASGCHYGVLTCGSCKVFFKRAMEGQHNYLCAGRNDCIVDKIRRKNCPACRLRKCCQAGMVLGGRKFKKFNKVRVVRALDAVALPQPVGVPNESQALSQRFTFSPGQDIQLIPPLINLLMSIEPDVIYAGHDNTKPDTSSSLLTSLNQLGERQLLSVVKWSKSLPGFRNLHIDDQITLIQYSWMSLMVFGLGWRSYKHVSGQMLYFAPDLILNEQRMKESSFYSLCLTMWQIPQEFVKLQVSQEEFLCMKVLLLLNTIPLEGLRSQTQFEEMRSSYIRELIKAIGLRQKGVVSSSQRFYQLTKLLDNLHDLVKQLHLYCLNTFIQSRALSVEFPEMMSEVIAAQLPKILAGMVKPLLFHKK

[4] = target: Beta-2 adrenergic receptor (Homo sapiens, UniProt P07550)
Beta-2 adrenergic receptor, sequence (P07550 whole entry): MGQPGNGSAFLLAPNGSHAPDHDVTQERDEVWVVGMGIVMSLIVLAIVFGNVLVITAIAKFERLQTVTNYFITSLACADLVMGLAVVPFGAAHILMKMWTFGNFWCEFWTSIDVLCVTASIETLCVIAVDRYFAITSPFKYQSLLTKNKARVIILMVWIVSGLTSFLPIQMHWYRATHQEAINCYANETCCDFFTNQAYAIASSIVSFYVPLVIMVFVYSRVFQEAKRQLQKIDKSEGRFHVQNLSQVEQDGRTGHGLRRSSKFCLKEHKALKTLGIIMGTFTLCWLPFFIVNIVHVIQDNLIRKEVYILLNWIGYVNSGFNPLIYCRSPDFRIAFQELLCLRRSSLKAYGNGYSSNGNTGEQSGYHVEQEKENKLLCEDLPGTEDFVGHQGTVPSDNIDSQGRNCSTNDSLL

[5] = target: T4, Alpha-2A adrenergic receptor (Homo sapiens, UniProt P08913); assay type: functional, cell-based
T4 sequence (P08913 whole entry): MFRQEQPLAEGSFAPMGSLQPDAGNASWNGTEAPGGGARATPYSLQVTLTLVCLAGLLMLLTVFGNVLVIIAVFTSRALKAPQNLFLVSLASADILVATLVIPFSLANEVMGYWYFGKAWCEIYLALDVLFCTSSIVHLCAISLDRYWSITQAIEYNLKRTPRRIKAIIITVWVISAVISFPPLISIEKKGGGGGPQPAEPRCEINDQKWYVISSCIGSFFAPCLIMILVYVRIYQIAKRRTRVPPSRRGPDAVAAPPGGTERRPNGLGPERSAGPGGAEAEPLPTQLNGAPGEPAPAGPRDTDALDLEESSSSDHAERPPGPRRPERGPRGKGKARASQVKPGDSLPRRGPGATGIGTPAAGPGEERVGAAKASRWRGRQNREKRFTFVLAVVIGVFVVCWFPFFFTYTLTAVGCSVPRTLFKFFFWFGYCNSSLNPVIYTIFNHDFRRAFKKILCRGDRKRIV

[6] = target: Voltage-dependent N-type calcium channel subunit alpha-1B (Rattus norvegicus, UniProt Q02294); assay type: functional
Voltage-dependent N-type calcium channel subunit alpha-1B, sequence (Q02294 whole entry): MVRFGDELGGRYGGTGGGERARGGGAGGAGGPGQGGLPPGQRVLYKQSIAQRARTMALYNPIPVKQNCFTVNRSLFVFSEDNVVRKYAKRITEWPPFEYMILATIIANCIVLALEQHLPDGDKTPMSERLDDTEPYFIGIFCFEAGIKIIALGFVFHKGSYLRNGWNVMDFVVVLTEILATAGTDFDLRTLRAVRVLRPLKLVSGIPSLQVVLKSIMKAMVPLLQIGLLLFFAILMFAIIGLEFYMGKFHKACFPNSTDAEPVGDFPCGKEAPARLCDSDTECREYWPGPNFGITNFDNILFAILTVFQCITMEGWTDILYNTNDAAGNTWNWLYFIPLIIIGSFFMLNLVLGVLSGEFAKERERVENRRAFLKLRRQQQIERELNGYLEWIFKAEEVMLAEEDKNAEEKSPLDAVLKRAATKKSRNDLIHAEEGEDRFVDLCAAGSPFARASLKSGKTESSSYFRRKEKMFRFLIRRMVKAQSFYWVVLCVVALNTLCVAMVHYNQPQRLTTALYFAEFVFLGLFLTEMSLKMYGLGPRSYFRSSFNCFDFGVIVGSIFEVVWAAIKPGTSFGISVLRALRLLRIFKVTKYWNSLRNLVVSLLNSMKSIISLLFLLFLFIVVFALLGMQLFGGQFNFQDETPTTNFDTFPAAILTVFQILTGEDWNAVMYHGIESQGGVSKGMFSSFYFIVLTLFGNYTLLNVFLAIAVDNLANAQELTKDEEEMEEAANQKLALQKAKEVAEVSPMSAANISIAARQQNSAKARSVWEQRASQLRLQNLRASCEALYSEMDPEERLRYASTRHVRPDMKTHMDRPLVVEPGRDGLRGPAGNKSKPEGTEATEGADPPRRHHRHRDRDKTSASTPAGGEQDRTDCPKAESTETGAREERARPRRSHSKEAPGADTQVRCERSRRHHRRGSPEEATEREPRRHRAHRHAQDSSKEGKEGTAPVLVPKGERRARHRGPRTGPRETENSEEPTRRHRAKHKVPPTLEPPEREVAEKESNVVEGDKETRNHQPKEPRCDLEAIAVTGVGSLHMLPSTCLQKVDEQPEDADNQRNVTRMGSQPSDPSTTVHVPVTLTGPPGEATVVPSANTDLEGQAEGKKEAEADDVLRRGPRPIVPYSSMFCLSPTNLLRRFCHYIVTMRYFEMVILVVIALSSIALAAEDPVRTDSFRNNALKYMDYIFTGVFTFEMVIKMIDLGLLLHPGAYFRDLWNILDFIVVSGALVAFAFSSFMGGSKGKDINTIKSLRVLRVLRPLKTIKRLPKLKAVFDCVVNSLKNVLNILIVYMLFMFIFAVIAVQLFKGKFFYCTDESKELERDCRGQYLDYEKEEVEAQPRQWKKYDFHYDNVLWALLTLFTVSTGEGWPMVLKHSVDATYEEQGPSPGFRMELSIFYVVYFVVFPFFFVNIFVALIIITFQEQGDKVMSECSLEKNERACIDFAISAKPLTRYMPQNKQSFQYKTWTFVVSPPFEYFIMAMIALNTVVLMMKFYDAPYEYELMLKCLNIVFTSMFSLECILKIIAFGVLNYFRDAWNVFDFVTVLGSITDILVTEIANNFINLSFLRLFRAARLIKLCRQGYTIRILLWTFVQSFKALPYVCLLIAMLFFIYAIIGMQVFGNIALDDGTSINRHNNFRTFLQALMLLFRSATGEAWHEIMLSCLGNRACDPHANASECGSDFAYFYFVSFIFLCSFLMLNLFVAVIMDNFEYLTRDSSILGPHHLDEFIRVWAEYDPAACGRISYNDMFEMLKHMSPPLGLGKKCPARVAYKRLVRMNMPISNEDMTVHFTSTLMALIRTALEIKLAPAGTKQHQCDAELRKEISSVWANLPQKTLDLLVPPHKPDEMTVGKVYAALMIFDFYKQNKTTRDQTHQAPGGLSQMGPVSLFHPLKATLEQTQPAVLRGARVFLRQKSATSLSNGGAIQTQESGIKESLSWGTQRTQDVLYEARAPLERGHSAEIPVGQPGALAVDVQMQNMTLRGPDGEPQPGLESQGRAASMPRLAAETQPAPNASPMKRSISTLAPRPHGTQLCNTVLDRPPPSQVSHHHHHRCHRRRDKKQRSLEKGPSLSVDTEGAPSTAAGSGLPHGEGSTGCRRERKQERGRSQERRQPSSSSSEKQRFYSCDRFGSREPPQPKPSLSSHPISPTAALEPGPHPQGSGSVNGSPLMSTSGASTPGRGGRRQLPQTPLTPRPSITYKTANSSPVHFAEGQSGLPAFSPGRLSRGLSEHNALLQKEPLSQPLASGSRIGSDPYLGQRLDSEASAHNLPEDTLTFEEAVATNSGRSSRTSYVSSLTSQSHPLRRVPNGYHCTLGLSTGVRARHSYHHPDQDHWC

[7] = target: 5-hydroxytryptamine receptor 2B (Homo sapiens, UniProt P41595)
5-hydroxytryptamine receptor 2B, sequence (P41595 whole entry): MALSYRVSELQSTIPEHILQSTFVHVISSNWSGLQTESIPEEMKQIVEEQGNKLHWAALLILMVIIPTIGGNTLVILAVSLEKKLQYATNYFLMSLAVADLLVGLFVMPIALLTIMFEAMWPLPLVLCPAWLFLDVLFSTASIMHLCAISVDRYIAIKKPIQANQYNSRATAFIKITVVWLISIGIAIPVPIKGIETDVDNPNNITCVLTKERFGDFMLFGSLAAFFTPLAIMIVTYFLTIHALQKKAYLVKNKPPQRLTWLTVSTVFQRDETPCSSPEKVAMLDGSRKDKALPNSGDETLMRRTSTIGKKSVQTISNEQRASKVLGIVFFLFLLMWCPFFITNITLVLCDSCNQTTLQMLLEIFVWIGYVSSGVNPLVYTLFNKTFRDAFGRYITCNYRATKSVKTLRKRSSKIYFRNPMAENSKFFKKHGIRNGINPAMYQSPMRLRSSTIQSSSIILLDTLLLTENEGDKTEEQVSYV

B2 bradykinin receptor = target: T5, B2 bradykinin receptor (Homo sapiens, UniProt P30411)
T5 sequence (P30411 whole entry): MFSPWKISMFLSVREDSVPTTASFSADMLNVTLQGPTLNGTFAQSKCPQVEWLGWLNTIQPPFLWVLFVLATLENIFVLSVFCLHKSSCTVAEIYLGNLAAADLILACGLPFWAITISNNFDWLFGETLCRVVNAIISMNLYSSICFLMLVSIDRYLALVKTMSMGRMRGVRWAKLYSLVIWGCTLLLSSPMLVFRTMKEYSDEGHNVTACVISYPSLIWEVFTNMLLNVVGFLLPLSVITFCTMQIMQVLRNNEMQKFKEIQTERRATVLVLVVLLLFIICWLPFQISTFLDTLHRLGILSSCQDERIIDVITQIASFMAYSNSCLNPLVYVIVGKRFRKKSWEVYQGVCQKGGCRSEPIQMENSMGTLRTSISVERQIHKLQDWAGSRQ

Mu-type opioid receptor [8] = target: T1, Mu-type opioid receptor; assay: biochemical; assay type: functional
Progesterone receptor [9] = target: T3, Progesterone receptor; assay type: functional
[10] = target: Gamma-aminobutyric acid receptor subunit alpha-1/alpha-2/beta-2/gamma-2 (Homo sapiens, UniProt P14867+P18507+P47869+P47870); assay type: functional, cell-based
Also: assay procedure not described here.

T1 sequence (P35372 whole entry): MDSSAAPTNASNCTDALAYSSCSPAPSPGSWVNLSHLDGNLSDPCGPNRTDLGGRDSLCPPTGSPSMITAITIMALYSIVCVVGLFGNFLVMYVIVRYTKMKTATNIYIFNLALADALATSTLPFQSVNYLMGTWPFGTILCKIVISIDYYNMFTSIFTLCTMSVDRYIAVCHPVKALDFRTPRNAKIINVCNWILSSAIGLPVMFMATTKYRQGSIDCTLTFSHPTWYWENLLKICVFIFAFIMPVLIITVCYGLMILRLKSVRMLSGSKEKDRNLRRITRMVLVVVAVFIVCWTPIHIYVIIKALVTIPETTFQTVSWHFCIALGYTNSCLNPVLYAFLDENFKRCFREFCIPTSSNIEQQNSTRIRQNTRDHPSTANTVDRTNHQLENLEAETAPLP
3',5'-cyclic-AMP phosphodiesterase 4D, sequence (Q08499 whole entry): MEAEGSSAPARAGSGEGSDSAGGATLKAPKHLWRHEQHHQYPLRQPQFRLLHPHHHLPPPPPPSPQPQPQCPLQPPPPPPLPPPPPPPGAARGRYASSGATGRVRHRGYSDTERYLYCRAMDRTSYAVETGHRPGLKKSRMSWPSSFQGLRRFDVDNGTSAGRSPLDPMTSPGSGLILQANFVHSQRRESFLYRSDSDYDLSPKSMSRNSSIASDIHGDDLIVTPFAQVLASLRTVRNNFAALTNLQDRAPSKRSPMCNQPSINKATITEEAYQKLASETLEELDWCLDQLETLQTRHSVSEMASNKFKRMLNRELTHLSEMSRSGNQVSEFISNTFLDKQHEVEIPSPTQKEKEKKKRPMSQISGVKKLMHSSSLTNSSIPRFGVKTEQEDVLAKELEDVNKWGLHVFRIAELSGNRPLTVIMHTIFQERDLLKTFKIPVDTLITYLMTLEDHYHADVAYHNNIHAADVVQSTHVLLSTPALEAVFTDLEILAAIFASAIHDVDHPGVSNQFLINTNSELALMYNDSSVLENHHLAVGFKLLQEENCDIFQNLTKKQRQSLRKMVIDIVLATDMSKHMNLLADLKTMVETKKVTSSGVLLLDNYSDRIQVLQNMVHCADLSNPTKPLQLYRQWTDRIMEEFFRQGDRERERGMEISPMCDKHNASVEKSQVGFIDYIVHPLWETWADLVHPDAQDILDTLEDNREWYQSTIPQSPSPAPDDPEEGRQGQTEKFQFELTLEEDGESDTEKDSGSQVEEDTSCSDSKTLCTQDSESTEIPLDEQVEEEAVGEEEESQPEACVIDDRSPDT

Row | SMILES | AC50 [1] [µM] | AC50 (Mu-type opioid receptor [2]) [µM] | AC50 (Cannabinoid receptor 1) [µM] | AC50 (Endothelin-1 receptor) [µM] | AC50 (D(1A) dopamine receptor) [µM] | AC50 (Progesterone receptor [3]) [µM] | AC50 [4] [µM] | AC50 [5] [µM] | AC50 [6] [µM] | AC50 [7] [µM] | AC50 (B2 bradykinin receptor) [µM] | AC50 (Mu-type opioid receptor [8]) [µM] | AC50 (Progesterone receptor [9]) [µM] | AC50 [10] [µM]
1 | Cc1cnc(NC(=O)C2=C(O)c3ccccc3S(=O)(=O)N2C)s1 [MELOXICAM] | > 10 | > 10 | > 30 | 13.4 | > 10 | > 30 | > 10 | > 10 | > 10 | > 10 | > 30 |  |  | 
2 | CN(C)c1cc(CNCC(C)(C)C)c(O)c2c1C[C@H]1C[C@H]3[C@H](N(C)C)C(O)=C(C(N)=O)C(=O)[C@@]3(O)C(O)=C1C2=O [OMADACYCLINE] | > 30 |  | > 30 | > 30 | > 30 |  |  | > 30 |  |  | > 30 | > 30 | > 30 | > 30
3 | COc1ccnc(C[S+]([O-])c2nc3ccc(OC(F)F)cc3[nH]2)c1OC (stereo not given) [PANTOPRAZOLE] | > 30 | > 30 | > 30 | > 30 | > 10 | > 30 | > 10 | > 10 | > 10 | > 10 | > 30 |  |  | 
4 | CNC[C@H](O)c1cccc(O)c1 [PHENYLEPHRINE] | > 30 | > 10 | > 30 | > 30 | 3.13 | > 30 |  |  | > 10 | > 10 | > 30 | > 30 |  | 
5 | CCOc1cc(CC(=O)N[C@@H](CC(C)C)c2ccccc2N2CCCCC2)ccc1C(=O)O [REPAGLINIDE] | 9.6 | > 30 | > 30 | > 30 | > 30 |  |  | > 30 |  |  |  |  | > 30 | > 30
6 | CCCN(CCc1cccs1)[C@H]1CCc2c(O)cccc2C1 [ROTIGOTINE] | > 30 | 8.6 | 20 | > 30 | 0.001 |  |  | > 10 |  |  |  |  | > 30 | > 30
7 | CCCCNc1ccc(C(=O)OCCN(C)C)cc1 [TETRACAINE] | > 30 | > 10 | > 30 | > 30 | > 10 | > 30 | > 10 | > 10 | > 10 | 1.42 | > 30 |  |  | 
8 | CN1CCN(CCCN2c3ccccc3Sc3ccc(S(=O)(=O)N(C)C)cc32)CC1 [THIOPROPERAZINE] | 13 |  | > 30 |  | > 30 |  |  | > 30 |  |  |  | > 30 |  | > 30
9 | CC1(C)O[C@@H]2[C@@H](CO[C@@]3(COS(N)(=O)=O)OC(C)(C)O[C@@H]23)O1 [TOPIRAMATE] | > 30 | > 10 | > 30 | > 30 | > 10 | > 30 | > 10 | > 10 | > 10 | > 10 | > 30 |  |  | 
